Test results taken from ChEMBL document CHEMBL1799925, “Inhibition of sphingosine 1-phosphate lyase for the treatment of rheumatoid arthritis: discovery of (E)-1-(4-((1R,2S,3R)-1,2,3,4-tetrahydroxybutyl)-1H-imidazol-2-yl)ethanone oxime (LX2931) and (1R,2S,3R)-1-(2-(isoxazol-3-yl)-1H-imidazol-4-yl)butane-1,2,3,4-tetraol (LX2932)” (J Med Chem, 2010).
Calls of active or inactive are those of the source. The calls are words filed in the database; no cut-off is given here.

Experiments:
[1] = Half life in 129/SvEvBrd X C57BL/6 F1 mouse at 10 mg/kg, po by LC/MS/MS analysis; assay type: ADME, organism-based; set-up: dose 10 mg/kg, route oral; conditions: in vivo
[2] = Cmax in 129/SvEvBrd X C57BL/6 F1 mouse at 10 mg/kg, po by LC/MS/MS analysis; assay type: ADME, organism-based; set-up: dose 10 mg/kg, route oral; conditions: in vivo
[3] = Tmax in 129/SvEvBrd X C57BL/6 F1 mouse at 10 mg/kg, po by LC/MS/MS analysis; assay type: ADME, organism-based; set-up: dose 10 mg/kg, route oral; conditions: in vivo
[4] = Volume of distribution at steady state in 129/SvEvBrd X C57BL/6 F1 mouse at 1 mg/kg, iv by LC/MS/MS analysis; assay type: ADME, organism-based; set-up: dose 1 mg/kg, route intravenous; conditions: in vivo, read-out: Vdss
[5] = Clearance in 129/SvEvBrd X C57BL/6 F1 mouse at 1 mg/kg, iv by LC/MS/MS analysis; assay type: ADME, organism-based; set-up: dose 1 mg/kg, route intravenous; conditions: in vivo
[6] = (§1) Bioavailability in 129/SvEvBrd X C57BL/6 F1 mouse determined from 1 mg/kg, iv and 10 mg/kg, po by LC/MS/MS analysis; assay type: ADME, organism-based; conditions: 129/SvEvBrd X C57BL/6 F1, mouse, in vivo
[7] = Tmax in Sprague-Dawley rat at 10 mg/kg, po by LC/MS/MS analysis; assay type: ADME, organism-based; set-up: dose 10 mg/kg, route oral; conditions: in vivo
[8] = Cmax in Sprague-Dawley rat at 10 mg/kg, po by LC/MS/MS analysis; assay type: ADME, organism-based; set-up: dose 10 mg/kg, route oral; conditions: in vivo
[9] = AUC (0 to infinity) in Sprague-Dawley rat at 10 mg/kg, po by LC/MS/MS analysis; assay type: ADME, organism-based; set-up: time infinity, dose 10 mg/kg, route oral; conditions: plasma
Rattus norvegicus [10] = experiment: Volume of distribution at steady state in Sprague-Dawley rat at 10 mg/kg, po by LC/MS/MS analysis; assay type: ADME, organism-based; set-up: dose 10 mg/kg, route oral; conditions: in vivo
[11] = Clearance in Sprague-Dawley rat at 1 mg/kg, iv by LC/MS/MS analysis; assay type: ADME, organism-based; set-up: dose 1 mg/kg, route intravenous; conditions: in vivo
[12] = Oral bioavailability in Sprague-Dawley rat determined from 1 mg/kg, iv and 10 mg/kg, po by LC/MS/MS analysis; assay type: ADME, organism-based; conditions: in vivo
[13] = Tmax in Beagle dog at 50 mg/kg, po by LC/MS/MS analysis; assay type: ADME, organism-based, Canis lupus familiaris; set-up: dose 50 mg/kg, route oral; conditions: in vivo
[14] = Cmax in Beagle dog at 50 mg/kg, po by LC/MS/MS analysis; assay type: ADME, organism-based, Canis lupus familiaris; set-up: dose 50 mg/kg, route oral; conditions: in vivo
[15] = AUC (0 to infinity) in Beagle dog at 50 mg/kg, po by LC/MS/MS analysis; assay type: ADME, organism-based, Canis lupus familiaris; set-up: dose 50 mg/kg, route oral, time infinity; conditions: plasma
Canis familiaris [16] = experiment: Volume of distribution at steady state in Beagle dog at 50 mg/kg, po by LC/MS/MS analysis; assay type: ADME, organism-based, Canis lupus familiaris; set-up: dose 50 mg/kg, route oral; conditions: in vivo
[17] = Clearance in Beagle dog at 1 mg/kg, iv by LC/MS/MS analysis; assay type: ADME, organism-based, Canis lupus familiaris; set-up: dose 1 mg/kg, route intravenous; conditions: in vivo
[18] = Bioavailability in Beagle dog determined from 1 mg/kg, iv and 50 mg/kg, po by LC/MS/MS analysis; assay type: ADME, organism-based, Canis lupus familiaris; conditions: in vivo
[19] = Tmax in cynomolgus monkey at 30 mg/kg, po by LC/MS/MS analysis; assay type: ADME, organism-based, Macaca fascicularis; set-up: dose 30 mg/kg, route oral; conditions: in vivo
[20] = Cmax in cynomolgus monkey at 30 mg/kg, po by LC/MS/MS analysis; assay type: ADME, organism-based, Macaca fascicularis; set-up: dose 30 mg/kg, route oral; conditions: in vivo
[21] = AUC (0 to infinity) in cynomolgus monkey at 30 mg/kg, po by LC/MS/MS analysis; assay type: ADME, organism-based, Macaca fascicularis; set-up: dose 30 mg/kg, route oral, time infinity; conditions: plasma
Cynomolgus monkey [22] = experiment: Volume of distribution at steady state in cynomolgus monkey at 30 mg/kg, po by LC/MS/MS analysis; assay type: ADME, organism-based, Macaca fascicularis; set-up: dose 30 mg/kg, route oral; conditions: in vivo
[23] = Clearance in cynomolgus monkey at 1 mg/kg, iv by LC/MS/MS analysis; assay type: ADME, organism-based, Macaca fascicularis; set-up: dose 1 mg/kg, route intravenous; conditions: in vivo
[24] = Bioavailability in cynomolgus monkey determined from 1 mg/kg, iv and 30 mg/kg, po by LC/MS/MS analysis; assay type: ADME, organism-based, Macaca fascicularis; conditions: in vivo
[25] = Tmax in healthy human at 1 mg/kg, po by LC/MS/MS analysis; assay type: ADME, organism-based; set-up: dose 1 mg/kg, route oral; conditions: in vivo
[26] = Cmax in healthy human at 1 mg/kg, po by LC/MS/MS analysis; assay type: ADME, organism-based; set-up: dose 1 mg/kg, route oral; conditions: in vivo
[27] = AUC (0 to infinity) in healthy human at 1 mg/kg, po by LC/MS/MS analysis; assay type: ADME, organism-based; set-up: time infinity, dose 1 mg/kg, route oral; conditions: plasma
Rattus norvegicus [28] = experiment: Increase in S1P level in Sprague-Dawley rat thymus at 30 mg/kg, po administered daily for 3 days measured after 18 hrs […] relative to untreated control; assay type: functional
Rattus norvegicus [29] = experiment: Increase in S1P level in Sprague-Dawley rat spleen at 30 mg/kg, po administered daily for 3 days measured after 18 hrs […] relative to untreated control; assay type: functional
Rattus norvegicus [30] = experiment: Increase in S1P level in Sprague-Dawley rat jejunum at 30 mg/kg, po administered daily for 3 days measured after 18 hrs […] relative to untreated control; assay type: functional
Mus musculus [31] = experiment: Immunomodulatory activity in mouse assessed as induction of lymphopenia at 30 to 100 mg/kg, po administered as single dose measured after 18 hrs; assay type: functional; conditions: dose mg/kg 30-100
Mus musculus [32] = experiment: Antiarthritic activity in […] collagen-induced arthritic mouse assessed as decrease in circulating T cells at 100 mg/kg, po qd administered one day before collagen challenge; assay type: functional, T-cell; set-up: scale not given: the % may be the effect or the level left
Canis familiaris [33] = experiment: Cardiotoxicity in Beagle dog assessed as increase in heart rate at 500 mg/kg, po administered as single dose after 24 hrs by electrocardiogram analysis; assay type: toxicity, organism-based, Canis lupus familiaris; set-up: dose 500 mg/kg, route oral; conditions: in vivo
Cynomolgus monkey [34] = experiment: Cardiotoxicity in cynomolgus monkey assessed as increase in heart rate at 1000 mg/kg, po administered as single dose after 24 hrs by electrocardiogram analysis; assay type: toxicity, organism-based, Macaca fascicularis; set-up: dose 1000 mg/kg, route oral; conditions: in vivo
Homo sapiens [35] = experiment: Immunomodulatory activity in arthritic patient assessed as decrease in peripheral lymphocytes at […], po administered as single dose after 48 hrs; assay type: functional; set-up: scale not given: the % may be the effect or the level left
Homo sapiens [36] = experiment: Toxicity in arthritic patient assessed as tolerability at […], po administered as single dose; assay type: organism-based; set-up: route oral; conditions: in vivo
Mus musculus [37] = experiment: Immunomodulatory activity in 129/SvEvBrd X C57BL/6 F1 mouse assessed as decrease in peripheral blood lymphocyte count at 30 mg/kg, po measured after 18 hrs by complete blood count analysis relative to control; assay type: ADME, organism-based; set-up: dose 30 mg/kg, route oral; scale not given: the % may be the effect or the level left; conditions: in vivo
[38] = (§2) AUC (0 to infinity) in 129/SvEvBrd X C57BL/6 F1 mouse at 10 mg/kg, po by LC/MS/MS analysis; assay type: ADME, organism-based, Plasma; set-up: time infinity, dose 10 mg/kg, route oral; conditions: 129/SvEvBrd X C57BL/6 F1, mouse, plasma
Mus musculus [39] = experiment: as §1; assay type: ADME, organism-based; conditions: mouse, in vivo
Mus musculus [40] = experiment: Antiarthritic activity in […] collagen-induced arthritis in mouse assessed as decrease in joint swelling at 30 mg/kg, po administered qd on day 20 after collagen challenge by ELISA; assay type: functional, organism-based; set-up: dose 30 mg/kg
Mus musculus [41] = experiment: Antiarthritic activity in […] collagen-induced arthritis in mouse assessed as decrease in clinical scores at 30 mg/kg, po administered qd on day 20 after collagen challenge by ELISA; assay type: functional, organism-based; set-up: dose 30 mg/kg
Mus musculus [42] = experiment: Effect on serum anti-CII antibody levels in type 2 collagen-induced arthritis in mouse at 30 mg/kg, po administered qd on day 20 after collagen challenge by ELISA; assay type: functional, organism-based; set-up: dose 30 mg/kg
Mus musculus [43] = experiment: Antiarthritic activity in […] collagen-induced arthritis in mouse assessed as decrease in joint swelling at 5 mg/kg, po administered qd on day 20 after collagen challenge by ELISA; assay type: functional, organism-based; set-up: dose 5 mg/kg
Mus musculus [44] = experiment: Antiarthritic activity in […] collagen-induced arthritis in mouse assessed as decrease in clinical scores at 5 mg/kg, po administered qd on day 20 after collagen challenge by ELISA; assay type: functional, organism-based; set-up: dose 5 mg/kg
Mus musculus [45] = experiment: as §2; assay type: ADME, organism-based, Plasma; set-up: time infinity, dose 10 mg/kg, route oral; conditions: mouse, in vivo

## C/C(=N\O)c1nc([C@@H](O)[C@H](O)[C@H](O)CO)c[nH]1.Cl
[1]
  half-life: 1.6 h
[2]
  Cmax: 3.6 µM
[3]
  Tmax: 0.45 h
[4]
  Vd: 0.9 L/kg
[5]
  clearance: 0.456 L/h/kg
[6]
  bioavailability: 6.8%
[7]
  Tmax: 2 h
[8]
  Cmax: 2.7 µM
[9]
  AUC(0-inf): 18.7 µM·h
Rattus norvegicus [10]
  Vdss: 0.6 L/kg
[11]
  clearance: 0.612 L/h/kg
[12]
  bioavailability: 26%
[13]
  Tmax: 2 h
[14]
  Cmax: 79.5 µM
[15]
  AUC(0-inf): 323 µM·h
Canis familiaris [16]
  Vdss: 0.3 L/kg
[17]
  clearance: 0.21 L/h/kg
[18]
  bioavailability: 32.1%
[19]
  Tmax: 2.3 h
[20]
  Cmax: 16.9 µM
[21]
  AUC(0-inf): 70.1 µM·h
Cynomolgus monkey [22]
  Vdss: 0.5 L/kg
[23]
  clearance: 0.288 L/h/kg
[24]
  bioavailability: 16.4%
[25]
  Tmax: 2 h
[26]
  Cmax: 3 µM
[27]
  AUC(0-inf): 19 µM·h
Rattus norvegicus [28]
  fold change (FC): 80
Rattus norvegicus [29]
  fold change (FC): 24
Rattus norvegicus [30]
  fold change (FC): 45
Mus musculus [31]
  Activity: 40%
Mus musculus [32]
  Activity: 40%
Canis familiaris [33]
  Activity: Non-toxic
Cynomolgus monkey [34]
  Activity: Non-toxic
Homo sapiens [35]
  Activity: 50%
Homo sapiens [36]
  Activity: Non-toxic
Mus musculus [37]
  Activity: -60%
[38]
  AUC(0-inf): 8.8 µM·h

## Cl.OC[C@@H](O)[C@@H](O)[C@H](O)c1c[nH]c(-c2ccon2)n1
[1]
  half-life: 2.9 h
[2]
  Cmax: 6.2 µM
[3]
  Tmax: 2.1 h
[4]
  Vd: 0.54 L/kg
Mus musculus [39]
  F: 2.4%
Mus musculus [40]
  Activity: Active
Mus musculus [41]
  Activity: Active
Mus musculus [42]
  Activity: inactive
Mus musculus [43]
  Activity: Active
Mus musculus [44]
  Activity: Active
Mus musculus [37]
  Activity: -70%
Mus musculus [45]
  AUC: 21 µM·h
